Laboratory results as given in US20180249707A1, “METHOD OF CONTROLLING ALGAE IN A BODY OF WATER” (priority 2013, published 2018).

Legend:
[1] = Solubility remark on stock solution preparation; type: physicochemical; conditions: stock solution made using 2% DMSO solution, heated
[2] = test system: Microcystis aeruginosa; assay: 15-day flask exposure of Microcystis aeruginosa to DDA and Cutrine-Plus; type: cell-based; conditions: for Cell Densities of Microcystis aeruginosa 15 days after: initial 4.5×10^4 cells/mL
Protocol: (§1) The experiment was conducted for 15 days and was initiated using 100 mL BG-11 medium contained in 200 mL flasks. […] The experiment was initiated by exposing the algae to 0.1, 0.2, 0.4, 0.8, and 1.6 mg/L as DDA, 0.2, 0.6, 1.0 mg Cu/L Cutrine®-Plus, and combinations of DDA and Cutrine®-Plus. […] The solution was heated in a water bath and diluted to 70 mg/L using warmed deionized water. The concentration of DMSO was approximately 350 mg/L in the test beakers. Cutrine®-Plus stock solution was made at 50 mg/L using deionized water. Three replicates of each exposure concentration, along with three replicates of an untreated reference were tested. Each sample was Maintained at room temperature with 12-hours of light and 12-hours dark photo period.

[3] = test system: M. aeruginosa UTEX 2385; assay: MIC 96-well microtiter plate assay in BG-11, 10 days; type: cell-based, Microcystis aeruginosa; conditions: 10 days, initial 0.1 ug/L
Protocol: MICs for the samples against M. aeruginosa were determined in a standard 96-well microtiter plate assay in BG-11 with a starting inoculum of ˜1×10^5 cells/mL. Algae plates were incubated for 10 days. MIC concentrations were determined visually, in vivo chlorophyll a was determined fluorometrically, and cell density was determined via direct counting. Samples were tested in duplicate.

[4] = test system: Cladophora sp.; assay: 15-day flask exposure of Cladophora sp. to DDA and Cutrine-Plus; type: cell-based; conditions: at concentrations comparable to Cutrine-Plus
Protocol: as §1, with “and 12-h” for “and 12-hours”, “dark photoperiod. […] 15 days after exposure. The Bars in FIG. 3 sharing the same letter are not different according to Fishers Protected LSD test at p≤0.05 significance level.” for “dark photo period.”

CCCCCCCCCCCCN [dodecylamine]
solubility [1]: low solubility | log reduction in M. aeruginosa cells ([2]; 0.4 mg/L, 15 days after start, compared to untreated reference): 1 log | Chlorophyll a content of M. aeruginosa compared to untreated reference algae ([2]; 0.2 to 1.6 ppm (mg/L), 15 days after start, p<0.01): reduced | Cell Densities of Microcystis aeruginosa 15 days after ([2]; DDA 0.1 mg/L, 15 days): 5.2 × 10^6 cells/mL | Cell Densities of Microcystis aeruginosa 15 days after ([2]; DDA 0.2 mg/L, 15 days): 6.7 × 10^6 cells/mL | Cell Densities of Microcystis aeruginosa 15 days after ([2]; DDA 0.4 mg/L, 15 days): 8.0 × 10^5 cells/mL | Cell Densities of Microcystis aeruginosa 15 days after ([2]; DDA 0.8 mg/L, 15 days): <10000 cells/mL | Cell Densities of Microcystis aeruginosa 15 days after ([2]; DDA 1.6 mg/L, 15 days): <10000 cells/mL | concentration necessary to achieve similar results as Cutrine-Plus (cell count data) ([2]; M. aeruginosa control, 15 days): 0.8 mg/L | effectiveness as an algaecide on Microcystis aeruginosa ([2]; at concentrations comparable to Cutrine-Plus): effective | In vivo chlorophyll a of M. aeruginosa ([3]; 0.031 active ppm): 7.85 µg/L | In vivo chlorophyll a of M. aeruginosa ([3]; 0.063 active ppm): 5.75 µg/L | In vivo chlorophyll a of M. aeruginosa ([3]; 0.125 active ppm): 2.60 µg/L | In vivo chlorophyll a of M. aeruginosa ([3]; 0.25 active ppm): 0.35 µg/L | In vivo chlorophyll a of M. aeruginosa ([3]; 0.5 active ppm): 0.00 µg/L | effectiveness as an algaecide on Cladophora sp. [4]: effective
